Test results taken from ChEMBL document CHEMBL5038616, “Synthesis and biological evaluation of N, N-dialkylcarboxy coumarin-NO donor conjugates as potential anticancer agents” (Bioorg Med Chem Lett, 2021).
Active and inactive are the calls of the source. The calls are words filed in the database; no cut-off is given here.

What was measured:
MDA-MB-231 [1] = assay: Antiproliferative activity against human MDA-MB-231 cells assessed as inhibition of cell proliferation by MTT assay; assay type: functional, cell-based
4T1 = assay: Antiproliferative activity against mouse 4T1 cells assessed as inhibition of cell proliferation by MTT assay; assay type: functional, cell-based
WiDr = assay: Antiproliferative activity against human WiDr cells assessed as inhibition of cell proliferation by MTT assay; assay type: functional, cell-based
[2] = Cytotoxicity against human MCF-10A cells assessed as inhibition of cell proliferation by MTT assay; assay type: toxicity, cell-based
[3] = Cytotoxicity against human HDFa cells assessed as inhibition of cell proliferation by MTT assay; assay type: toxicity, cell-based
MDA-MB-231 [4] = assay: Induction of NO production in human MDA-MB-231 cells assessed as nitrite level at 100 uM by Griess reagent based assay; assay type: functional, cell-based
MDA-MB-231 [5] = assay: Induction of NO production in human MDA-MB-231 cells assessed as increase in NO fluorescence at 50 nM treated with DAF-DM diacetate for 30 mins and measured after 2 hrs incubation by confocal microscopic analysis; assay type: functional, cell-based
MDA-MB-231 [6] = assay: Inhibition of colony formation in human MDA-MB-231 cells assessed as reduction in colony formation at 1 to 3 nM relative to control; assay type: functional, cell-based; settings: dose 1-3 nM
MDA-MB-231 [7] = assay: Induction of apoptosis in human MDA-MB-231 cells assessed as viable cells at 10 nM by annexin V-FITC and PI staining based flow cytometry method (reference value: 93.2 %); assay type: functional; settings: read-out: Activity
MDA-MB-231 [8] = assay: Induction of apoptosis in human MDA-MB-231 cells assessed as early apoptotic cells at 10 nM by annexin V-FITC and PI staining based flow cytometry method (reference value: 1.92 %); assay type: functional
MDA-MB-231 [9] = assay: Induction of apoptosis in human MDA-MB-231 cells assessed as late apoptotic cells at 10 nM by annexin V-FITC and PI staining based flow cytometry method (reference value: 2.02 %); assay type: functional
MDA-MB-231 [10] = assay: Induction of apoptosis in human MDA-MB-231 cells assessed as necrotic cells at 10 nM by annexin V-FITC and PI staining based flow cytometry method(reference value: 2.88 %); assay type: functional
MDA-MB-231 [11] = assay: Induction of apoptosis in human MDA-MB-231 cells assessed as viable cells at 25 nM by annexin V-FITC and PI staining based flow cytometry method (reference value: 93.2 %); assay type: functional; settings: read-out: Activity
MDA-MB-231 [12] = assay: Induction of apoptosis in human MDA-MB-231 cells assessed as early apoptotic cells at 25 nM by annexin V-FITC and PI staining based flow cytometry method (reference value: 1.92 %); assay type: functional
MDA-MB-231 [13] = assay: Induction of apoptosis in human MDA-MB-231 cells assessed as late apoptotic cells at 25 nM by annexin V-FITC and PI staining based flow cytometry method (reference value: 2.02 %); assay type: functional
MDA-MB-231 [14] = assay: Induction of apoptosis in human MDA-MB-231 cells assessed as necrotic cells at 25 nM by annexin V-FITC and PI staining based flow cytometry method (reference value: 2.88 %); assay type: functional
MDA-MB-231 [15] = assay: Induction of apoptosis in human MDA-MB-231 cells assessed as viable cells at 50 nM by annexin V-FITC and PI staining based flow cytometry method (reference value: 93.2 %); assay type: functional; settings: read-out: Activity
MDA-MB-231 [16] = assay: Induction of apoptosis in human MDA-MB-231 cells assessed as early apoptotic cells at 50 nM by annexin V-FITC and PI staining based flow cytometry method (reference value: 1.92 %); assay type: functional
MDA-MB-231 [17] = assay: Induction of apoptosis in human MDA-MB-231 cells assessed as late apoptotic cells at 50 nM by annexin V-FITC and PI staining based flow cytometry method (reference value: 2.02 %); assay type: functional
MDA-MB-231 [18] = assay: Induction of apoptosis in human MDA-MB-231 cells assessed as necrotic cells at 50 nM by annexin V-FITC and PI staining based flow cytometry analysis (reference value: 2.88 %); assay type: functional
MDA-MB-231 [19] = assay: Cell cycle arrest in human MDA-MB-231 cells assessed as accumulation of cells at G0/G1 phase at 20 nM by PI staining based flow cytometry method; assay type: functional
[20] = Toxicity in […] mouse xenografted with human MDA-MB-231 cells assessed as body weight loss at 20 mg/kg, ip dosed once daily for 14 days relative to control; assay type: organism-based; settings: in vivo, 336 h, time 14 day
MDA-MB-231 [21] = assay: Antitumor activity against human MDA-MB-231 cells xenografted in NOD-SCID mouse assessed as reduction in tumor volume at 20 mg/kg, ip measured for every 2 to 3 days; assay type: functional; parameters: scale not given: the % may be the effect or the level left; settings: time 2-3 day
MDA-MB-231 [22] = assay: Antitumor activity against human MDA-MB-231 cells xenografted in NOD-SCID mouse assessed as reduction in tumor mass at 20 mg/kg, ip measured for every 2 to 3 days; assay type: functional; parameters: scale not given: the % may be the effect or the level left; settings: time 2-3 day

| IC50 (MDA-MB-231 [1]) | IC50 (4T1) | Compound | IC50 (WiDr) | IC50 [2] | IC50 [3] | Activity (MDA-MB-231 [5]) | Activity (MDA-MB-231 [4]) | further results |
| --- | --- | --- | --- | --- | --- | --- | --- | --- |
| > 100 µM | > 100 µM | CCN(CC)c1ccc2cc(C(=O)OCCO)c(=O)oc2c1 | > 100 µM | > 100 µM | – | – | – | – |
| 3.6 µM | 1.3 µM | CCN(CC)c1ccc2cc(C(=O)OCCOc3no[n+]([O-])c3S(=O)(=O)c3ccccc3)c(=O)oc2c1 | 2.2 µM | – | 1.48 µM | Active | Active | – |
| 0.46 µM | 0.96 µM | O=C(c1cc2ccc(N(Cc3ccccc3)Cc3ccccc3)cc2oc1=O)N1CCN(CCOc2no[n+]([O-])c2S(=O)(=O)c2ccccc2)CC1 | 10 µM | 8.6 µM | 5.31 µM | Active | inactive | – |

Further lines, the molecule ahead of its results:

| Compound | IC50 (MDA-MB-231 [1]) | IC50 (4T1) | IC50 (WiDr) | IC50 [2] | IC50 [3] | Activity (MDA-MB-231 [5]) | Activity (MDA-MB-231 [4]) | further results |
| --- | --- | --- | --- | --- | --- | --- | --- | --- |
| O=C(O)c1cc2ccc(N(Cc3ccccc3)Cc3ccccc3)cc2oc1=O | > 100 µM | > 100 µM | > 100 µM | > 100 µM | – | – | – | – |
| O=C(OCCO)c1cc2ccc(N(Cc3ccccc3)Cc3ccccc3)cc2oc1=O | > 100 µM | > 100 µM | > 100 µM | > 100 µM | – | – | – | – |
| O=C(OCCOc1no[n+]([O-])c1S(=O)(=O)c1ccccc1)c1cc2ccc(N(Cc3ccccc3)Cc3ccccc3)cc2oc1=O | 0.02 µM | 0.13 µM | 0.03 µM | 34 µM | 1.48 µM | Active | – | IC50 (MDA-MB-231 [4]): Active; Activity (MDA-MB-231 [6]): Dose-Dependent Effect; viability at 0.01 µM (MDA-MB-231 [7]): 90.9%; Activity (MDA-MB-231 [8]): 2.04%; Activity (MDA-MB-231 [9]): 5.7%; Activity (MDA-MB-231 [10]): 1.36%; viability at 0.025 µM (MDA-MB-231 [11]): 75.9%; Activity (MDA-MB-231 [12]): 3.04%; Activity (MDA-MB-231 [13]): 19.4%; Activity (MDA-MB-231 [14]): 1.65%; viability at 0.05 µM (MDA-MB-231 [15]): 60.8%; Activity (MDA-MB-231 [16]): 4.8%; Activity (MDA-MB-231 [17]): 32.9%; Activity (MDA-MB-231 [18]): 1.47%; Activity (MDA-MB-231 [19]): Active; Activity [20]: Non-Toxic; Activity (MDA-MB-231 [21]): 48%; Activity (MDA-MB-231 [22]): 35% |
